As a reminder, the Kd is a measure of binding affinity in units of concentration. What is called Ki is the dissociation constant of the complex between target and ligand, obtained from inhibition or displacement. A high value points to a looser hold on the target.

The record followed here is PMC11417994, “Cyclohexanediamine Triazole (CHDT) Functionalization Enables Labeling of Target Molecules with Al^18F/^68Ga/^111In” (Bioconjugate Chemistry, 2024).

Values joined by “and” are separate entries in the source; they are usually repeats but may differ in a detail not shown here. Equal values may be shown once.

Data set [1] deals with T1, PSMA (Homo sapiens, UniProt Q04609).
T1 construct: Detection of endogenous PSMA expression in LNCaP and PC3 cells relative to β-actin expression by Western; host or cells: LNCaP human prostate carcinoma cells (monolayer, spheroids or Potter-Elvehjem homogenates)
T1 sequence (Q04609 whole entry): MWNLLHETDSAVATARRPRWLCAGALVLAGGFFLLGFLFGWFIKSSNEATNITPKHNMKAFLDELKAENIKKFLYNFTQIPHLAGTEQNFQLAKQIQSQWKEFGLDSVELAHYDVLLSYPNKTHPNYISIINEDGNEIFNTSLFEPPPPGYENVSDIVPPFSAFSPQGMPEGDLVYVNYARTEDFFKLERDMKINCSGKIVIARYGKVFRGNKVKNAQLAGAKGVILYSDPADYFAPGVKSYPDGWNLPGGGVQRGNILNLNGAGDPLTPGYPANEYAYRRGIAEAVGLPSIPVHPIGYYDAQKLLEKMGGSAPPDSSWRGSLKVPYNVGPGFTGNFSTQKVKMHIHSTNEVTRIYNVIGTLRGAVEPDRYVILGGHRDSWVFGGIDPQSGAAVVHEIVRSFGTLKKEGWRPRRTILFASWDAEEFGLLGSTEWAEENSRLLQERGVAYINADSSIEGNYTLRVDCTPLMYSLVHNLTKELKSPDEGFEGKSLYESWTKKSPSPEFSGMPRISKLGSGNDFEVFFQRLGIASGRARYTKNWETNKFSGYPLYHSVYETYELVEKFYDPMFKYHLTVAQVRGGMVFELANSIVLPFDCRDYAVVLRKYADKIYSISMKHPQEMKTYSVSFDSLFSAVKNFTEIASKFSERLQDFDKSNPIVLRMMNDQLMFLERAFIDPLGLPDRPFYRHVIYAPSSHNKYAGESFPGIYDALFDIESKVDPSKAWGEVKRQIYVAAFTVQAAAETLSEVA
Description: Saturation binding (surface-bound and internalized), intact LNCaP cells as monolayer. The source says:
(§1) In addition to assessing the binding affinities for nonlabeled CHDT-PSMA-1/2/3, we sought to characterize the saturation binding of the Al^18F-, ^68Ga-, and ^111In-labeled compounds using LNCaP cells cultured in monolayers and as spheroids. The saturation binding curves for Al[^18F]F-CHDT-PSMA-1/2/3 are depicted in Figure 3, while the graphs for [^18F]PSMA-1007 and ^68Ga- and ^111In-labeled CHDT-PSMA-1/2/3 can be found in Figures S7–S9 in the Supporting Information. The binding parameters (Kd and Bmax) for Al[^18F]F-CHDT-PSMA-1/2/3 and [^18F]PSMA-1007 are summarized in Table 3 (for the ^68Ga- and ^111In-labeled compounds see Tables S4 and S5 in the Supporting Information). For the saturation binding assays, we recorded surface-bound radioligand (named “binding”), which refers to bound radioligand that can be removed by acid wash, and internalized or acid-resistant radioligand (named “internalization”), which refers to radioligand that remains cell-bound after acid wash. Consequently, two saturation binding plots were obtained and two sets of binding parameters (Kd/Bmax and Kd,int/Bmax,int) were derived.
(§2) For saturation assays in well plates, monolayers of LNCaP (sowing 5 × 10^4 cells/well in 48-well plates 2 days before the assay), as well as LNCaP spheroids were incubated with radiolabeled CHDT-PSMA-1/2/3 and PSMA-1007 (0.2 nM to 100 nM) with adjacent samples receiving KuE (0.8 mM) at 37 °C for 2 h. The number of experiments can be derived from the data in the Tables S4, S5, and S7 in the Supporting Information. After removing the incubation medium and washing of cells with ice-cold PBS (containing Mg^2+ and Ca^2+) the surface-bound activity was stripped with 4 °C cold acid-wash buffer (0.2 M glycine, 0.15 M NaCl, pH 3.0) for 10 min. The acid wash buffer was transferred from the wells to measuring tubes, as was the PBS buffer after washing once. Cytosolic activity (internalized radioligand) was determined after treatment with cell lysis buffer (1% SDS in 0.1 M NaOH) at 37 °C for 30 min. Cell surface and cytosolic activity were measured separately in a gamma counter. Time-depending internalization assays were performed only with cells in monolayer. The incubation (radioligand concentration 13 nM) for these assays was terminated after 10 min, 1 and 3 h, with ^111In and ^177Lu additionally after 24 and 48 h at 37 °C, respectively. During the internalization assays adjacent samples received KuE (0.8 mM) for PSMA blocking, methyl-β-cyclodextrin (MβCD; 3 mM) or KuE together with MβCD, 1 h before radioligand application. The number of experiments can be derived from the data of Figure S11 and associated table and from Table S8 in the Supporting Information.
(§3) Dissociations constants (Kd and Kd,int), as well as maximal binding capacities (Bmax and Bmax,int), were derived from specific binding data by nonlinear regression according to the model of “One site-specific binding” as implemented in GraphPad Prism 10. Protein content was determined using the bicinchoninic acid protein assay kit (Pierce, Thermo Scientific) to calculate the binding capacities in pmol/mg and for the time-depending internalization the internalized percent of administrated dose per μg protein (% AD/μg protein).

For data set [2], the target named is T1, PSMA. The data set is described as follows: Saturation binding (surface-bound and internalized), LNCaP spheroids.
Description: as §1
For the formation of spheroids, the LNCaP cells were incubated overnight in a normal culture bottle with biocompatible nanoparticles ([…] with 80 μL of a suspension consisting of Au, Fe2O3 and poly-L-lysine called Nanoshuttle, Greiner Bio-One GmbH, Germany). After harvesting and cell counting, 10,000 cells/well of a 24-well plate or 7,000 cells/well of a 96-well plate (cell-repellent plates) were sown. The well plates were placed on matching plates with button magnets (Greiner Bio-One GmbH, Germany). The magnetized LNCaP cells formed suitable spheroids that were used after 5 d.
as §2, §3

Data set [3] concerns the target T1, PSMA. The data set is described as follows: Competition binding assay, LNCaP cell homogenates, radioligand [177Lu]Lu-PSMA-617. To be noted: nonlabeled compounds; [177Lu]Lu-PSMA-617 12 nM; 37 °C, 60 min; Table 2 mean (SEM), Table S3 individual experiments and mean. As to the method:
The binding affinity of the nonlabeled CHDT-PSMA-1/2/3, PSMA-1007, PSMA-617, and KuE was assessed in competition binding assays using LNCaP cell homogenates (∼1 × 10^6 cells/mL using Potter-Elvehjem) and the radioligand [^177Lu]Lu-PSMA-617 (n = 5 for CHDT-PSMA-1; n = 4 for CHDT-PSMA-2/3; n = 2 for PSMA-1007; n = 8 for PSMA-617; n = 6 for KuE). […] The assays were performed in a final volume of 200 μL. The incubation was stopped by washing the homogenate with cold PBS four times using a filter (Whatman GF/C, 90 min presoaked in 0.3% polyethylenimine) in a cell harvester (Brandel, USA). The radioactivity bound to the filter was measured in a gamma counter. Filter binding was determined for adjacent samples without cell homogenate. The experiments were performed two to four times in triplicates or quadruplicates. Inhibitory constants (Ki) were derived from nonlinear regression according to the model of “One site – Fit Ki” as implemented in GraphPad Prism 10. The Kd value of [^177Lu]Lu-PSMA-617 was determined in saturation binding assays using LNCaP cell homogenates to be 15.2 (±2.1) nM.

For data set [4], the target named is T1, PSMA. Description: Time-depending internalization assay, LNCaP cells as monolayer. Type of data set: cell-based. To be noted: individual experiments; for specific internalization in the presence of MβCD: MβCD 3 mM; for specific internalization: radioligand 13 nM. As to the method:
as §2, §3

Another data set relates to LNCaP tumor xenograft. The data set is described as follows: Small animal PET imaging, LNCaP tumor xenograft mouse model. The data set is classed as in vivo, mice. As to the method:
All animal experiments were performed in accordance with the German Animal Welfare regulations and were approved by the local ethics committee for animal experiments (DD24.1-51-31/449/49, Oct 26, 2018). A PSMA-positive prostate cancer xenograft model was generated by subcutaneous injection of human LNCaP cells into the right shoulder of 8–12 week-old male nude mice (Rj:NMRI-Foxn1^nu/nu, Janvier Laboratories, Le Genest-Saint-Isle, France). Imaging studies were performed when subcutaneous tumors reached a diameter of at least 6 mm. General anesthesia of the animals was induced and maintained by inhalation of 10% (v/v) desflurane in 30/70% (v/v) oxygen/air. Animals were continuously warmed at 37 °C during anesthesia.
Positron emission tomography (PET) was performed in vivo using the nanoScan PET/CT scanner (Mediso Medical Imaging Systems, Budapest, Hungary), especially suited for small animals. Each animal received 8–12 MBq of the reference compound [^18F]PSMA-1007 or the radioligands Al[^18F]F-CHDT-PSMA-1/2/3 in phosphate-buffered saline by intravenous injection via a tail vein catheter. At the time of injection, molar activities and radiochemical purities of the compounds were as follows: [^18F]PSMA-1007 (15 MBq/nmol, >99%); Al[^18F]F-CHDT-PSMA-1 (10 MBq/nmol, 99%); Al[^18F]F-CHDT-PSMA-2 (6.3 MBq/nmol, 98%); Al[^18F]F-CHDT-PSMA-3 (4.5 MBq/nmol, >99%). Specificity of target binding was assessed by blocking PSMA binding sites with 2-phosphonomethyl pentanedioic acid (2-PMPA), administered simultaneously with the radioligand at a dose of 50 mg/kg. With injection of the radioligand, emission of the annihilation photons was recorded continuously in coincidence mode of 1:5 for 120 min. A corresponding CT image was acquired with each PET scan and used for attenuation correction and anatomical referencing. From three-dimensional list mode data, events within the energy window of 400–600 keV were extracted and sorted into 36 time frames (f1–f36) with a sequence of 15 × 10 s, 5 × 30 s, 5 × 60 s, 4 × 300 s, 3 × 600 s, and 4 × 900 s. For each time frame, a PET image was reconstructed with the three-dimensional (3D) Tera-Tomo algorithm, with a voxel size of 0.4 mm, applying corrections for random events, scattering, attenuation, and decay.
Three-dimensional regions of interest (ROIs) were defined within an image series of selected time frames using fixed intensity thresholds for delineation of organs: bones at knee joint position (0–120 min, 55%), cardiac blood volume (0–1.7 min, 70%), gall bladder (0–120 min, 39%), intestine (0–120 min, 5%), kidneys (0–2.5 min, 15%), liver (0–2.5 min, 55%), muscle (0–120 min, 0%), parotid glands (0–120 min, 39%), tumor (0–120 min, 39%), and urinary bladder (0–120 min, 5%). Activity concentrations in tissue were determined as standardized uptake value (SUV = [MBq detected activity/mL tissue]/[MBq injected activity/g body weight]) and expressed as SUVmean (ROI-averaged). Time-activity curves were generated and analyzed using Prism (GraphPad Software, San Diego CA, USA). […] Areas under curves (AUC) were calculated using the trapezoid rule. Statistical significance of mean differences was tested by analysis of variance (ANOVA) using the Šidák test.

The mark [5] stands for this setting: Al^18F-labeled conjugate or [18F]PSMA-1007, acid-resistant fraction, read-out: Kd,int (internalization).
Where [6] appears, read: Al^18F-labeled conjugate or [18F]PSMA-1007, surface-bound.
[7] abbreviates: SUVmean ratio 105–120 min after injection, mean ± SD.

In the case of `O=C(O)CC[C@H](NC(=O)N[C@@H](CCCCNC(=O)[C@H](Cc1ccc2ccccc2c1)NC(=O)c1ccc(CNC(=O)[C@H](CCC(=O)O)NC(=O)[C@H](CCC(=O)O)NC(=O)c2ccc(F)nc2)cc1)C(=O)O)C(=O)O` [[^18F]PSMA-1007], the Kd at PSMA [1] (Al^18F-labeled conjugate or [18F]PSMA-1007, surface-bound, 37 °C, 2 h, read-out: Kd (binding)) came out at 5.4 nM.
With PSMA-1007 [reference compound], the “Bmax,int (internalization)” value on PSMA [1] (Al^18F-labeled conjugate or [18F]PSMA-1007, acid-resistant fraction) came out at 1.02 ± 0.21 pmol/mg. In addition, the Kd at PSMA [1] (setting [5]) came to 10.1 ± 5.9 nM; at PSMA [2] (setting [5]), 25.8 ± 18.6 nM; on PSMA [2] (Al^18F-labeled conjugate or [18F]PSMA-1007, surface-bound, read-out: Kd (binding)), 12.9 ± 1.2 nM. Moreover, the “Bmax (binding)” value on PSMA [1] (setting [6]) is 1.11 ± 0.06 pmol/mg. In addition, on PSMA [3], the Ki is 2 nM and 1.39 nM and 1.7 nM.
For `O=C(O)CC[C@H](NC(=O)N[C@@H](CCCCNC(=O)[C@H](Cc1ccc2ccccc2c1)NC(=O)[C@H]1CC[C@H](CNC(=O)CN2CCN(CC(=O)O)CCN(CC(=O)O)CCN(CC(=O)O)CC2)CC1)C(=O)O)C(=O)O` [PSMA-617], at PSMA [3], the inhibition constant (Ki) is 4.1 nM and 2.59 nM and 5.55 nM and 5.49 nM and 4.57 nM and 3.33 nM and 4.02 nM and 3.71 nM and 4.2 nM.
For the compound `O=C(O)CC[C@H](NC(=O)N[C@@H](CCCCNC(=O)[C@H](Cc1ccc2ccccc2c1)NC(=O)c1ccc(CNC(=O)[C@H](CCC(=O)O)NC(=O)[C@H](CCC(=O)O)NC(=O)c2ccc([18F])nc2)cc1)C(=O)O)C(=O)O` [[^18F]PSMA-1007], on PSMA [1] (setting [6]), the “Bmax (binding)” value is on record as 1.11 pmol/mg. At PSMA [4] (10 min), the “specific internalization in the presence of MβCD” value was 0.02232 % AD/µg protein and 0.008008 % AD/µg protein; the specific internalization is 0.03696 % AD/µg protein and 0.02616 % AD/µg protein. On PSMA [4] (1 h), the “specific internalization in the presence of MβCD” value was 0.1091 % AD/µg protein and 0.02833 % AD/µg protein and 0.1038 % AD/µg protein; the specific internalization was 0.07765 % AD/µg protein and 0.1071 % AD/µg protein and 0.1171 % AD/µg protein. In addition, on PSMA [4] (3 h), the “specific internalization in the presence of MβCD” value was 0.04566 % AD/µg protein and 0.1478 % AD/µg protein and 0.1495 % AD/µg protein; the specific internalization was 0.2295 % AD/µg protein and 0.1701 % AD/µg protein and 0.1562 % AD/µg protein. The “average SUVmean in bone tissue” value with LNCaP tumor xenograft (120 min p.i.) is recorded as 0.21. Moreover, in the data set on LNCaP tumor xenograft (setting [7]), the Tu/Blood came to 14 ± 3.0, the Tu/Bone was determined as 18 ± 7.9, the Tu/Kidney is 0.5 ± 0.2 and the Tu/Liver is reported as 16 ± 6.8. In the data set with LNCaP tumor xenograft (setting [7]), the Tu/Muscle came to 20 ± 6.9.
